In the test the target is Sigma non-opioid intracellular receptor 1 (Rattus norvegicus, UniProt Q9R0C9).

This is an account of results in BindingDB's records for PubMed 2989489 (Eli Lilly, 1985).

A word on the Ki: it is a dissociation constant, usually derived from enzyme kinetics or from competition with a known ligand. A low value points to higher affinity.

The structures appear in SMILES notation. “And” between values parts separate entries of the source, which are not always exact repeats. Equal values may be shown once. A value given as a limit tells only on which side of the number the result lay.

Chain of Sigma non-opioid intracellular receptor 1 (Q9R0C9 whole entry): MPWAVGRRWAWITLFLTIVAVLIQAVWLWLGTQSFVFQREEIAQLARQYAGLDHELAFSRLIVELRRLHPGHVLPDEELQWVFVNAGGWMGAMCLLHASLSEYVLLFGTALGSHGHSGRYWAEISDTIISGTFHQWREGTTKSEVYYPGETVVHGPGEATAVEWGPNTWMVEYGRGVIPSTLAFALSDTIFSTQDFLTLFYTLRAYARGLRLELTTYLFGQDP

Molecule `CCC12CCN(CC3(O)CC3)C(Cc3ccc(O)cc31)C2(C)C` (stereo unspecified) yielded an inhibition constant Ki of 229 nM. This counts as sub-micromolar. Turning to `CCC1(c2ccccc2)OCC([C@H]2CCCCN2)O1` (stereo partly specified), the Ki is 82 nM and 152 nM. The figure for `c1ccc(C2(N3CCCCC3)CCCCC2)cc1` is 29 nM and 135 nM; for `c1ccc(C2(c3ccccc3)OCC(C3CCCCN3)O2)cc1` (racemic) it is 23 nM and 141 nM. The value for `CN[C@@]1(c2ccccc2Cl)CCCCC1=O` [2-(2-Chloro-phenyl)-2-methylamino-cyclohexanone(Ketamine)] was 440 nM and 1450 nM. The figure for `Oc1ccc2c(c1)C13CCCCC1C(C2)N(CC1CC1)CC3` (stereo unspecified) [17-(cyclopropylmethyl)-17-azatetracyclo[7.5.3.0^{1,10}.0^{2,7}]heptadeca-2(7),3,5-trien-4-ol] is 226 nM and 287 nM. Turning to `C[C@@H]1[C@@H]2Cc3ccc(O)cc3[C@@]1(C)CCN2CC1CC1` [(SSS)-12-Cyclopropylmethyl-13-methyl-12-aza-tricyclo[9.1.1.0*3,8*]trideca-3(8),4,6-trien-6-ol(cyclazocine)], the inhibition constant Ki was 69 nM and 125 nM. The value for `CC1(C2(C)COC(c3ccccc3)(c3ccccc3)O2)CCCCN1` (stereo unspecified) [CAS_4792-18-1] was 5500 nM and 1900 nM. In turn, `Oc1noc2c1CCNC2` [CAS_64603-91-4] yielded a Ki of more than 10000 nM. The value for `Cc1cccc(C2(N3CCCCC3)CCCCC2)c1` [PCP,m-OH] was 8 nM and 77 nM; that for `C=CCN1CC[C@]2(C)c3cc(O)ccc3C[C@@H]1[C@@H]2C` [SKF 10,047 (-)] was 117 nM and 134 nM and 229 nM and 571 nM.
